{"source": "ChEMBL document CHEMBL3301361", "about": "“Experimental in vitro DMPK and physicochemical data on a set of publicly disclosed compounds”", "assay": "physchem", "conditions": "octan-1-ol/water"}
{"smiles": "COc1ncc(-c2ccc3nccc(-c4ccnnc4)c3c2)cc1NS(=O)(=O)c1ccc(F)cc1F", "note": "[OMIPALISIB]", "values": [{"measurement": "logD", "setting": "pH 7.4, LogD7.4", "result": 2.5}]}
{"smiles": "O=c1c(-c2ccc(O)c(O)c2)coc2cc(O)cc(O)c12", "note": "[OROBOL]", "values": [{"measurement": "logD", "setting": "pH 7.4, LogD7.4", "result": 2.45}]}
{"smiles": "Cc1[nH]c2ccccc2c1CCNCc1ccc(/C=C/C(=O)NO)cc1", "note": "[PANOBINOSTAT]", "values": [{"measurement": "logD", "setting": "pH 7.4, LogD7.4", "result": 1.1}]}
{"smiles": "COc1ccnc(C[S+]([O-])c2nc3ccc(OC(F)F)cc3[nH]2)c1OC", "note": "(configuration not stated) [PANTOPRAZOLE]", "values": [{"measurement": "logD", "setting": "pH 7.4, LogD7.4", "result": 2}]}
{"smiles": "CC(=O)CCCCn1c(=O)c2c(ncn2C)n(C)c1=O", "note": "[PENTOXIFYLLINE]", "values": [{"measurement": "logD", "setting": "pH 7.4, LogD7.4", "result": 0.22}]}
{"smiles": "NCCCC(=O)OCCN1CCN(CCCN2c3ccccc3Sc3ccc(Cl)cc32)CC1", "note": "[PERPHENAZINE 4-AMINOBUTYRATE]", "values": [{"measurement": "logD", "setting": "pH 7.4, LogD7.4", "result": 1.5}]}
{"smiles": "CN(c1ncccc1CNc1nc(Nc2ccc3c(c2)CC(=O)N3)ncc1C(F)(F)F)S(C)(=O)=O", "note": "[PF-00562271]", "values": [{"measurement": "logD", "setting": "pH 7.4, LogD7.4", "result": 2.63}]}
{"smiles": "OCCn1cc(-c2cnc3nnn(Cc4ccc5ncccc5c4)c3n2)cn1", "note": "[PF-04217903]", "values": [{"measurement": "logD", "setting": "pH 7.4, LogD7.4", "result": 1.7}]}
{"smiles": "CC(C)CNCc1ccc(-c2ccccc2S(=O)(=O)N2CCCC2)cc1", "note": "[PF-04455242]", "values": [{"measurement": "logD", "setting": "pH 7.4, LogD7.4", "result": 1.9}]}
{"smiles": "Nc1ccc(/N=N/c2ccccc2)c(N)n1", "note": "[PHENAZOPYRIDINE]", "values": [{"measurement": "logD", "setting": "pH 7.4, LogD7.4", "result": 3.22}]}
{"smiles": "NNCCc1ccccc1", "note": "[PHENELZINE]", "values": [{"measurement": "logD", "setting": "pH 7.4, LogD7.4", "result": -0.01}]}
{"smiles": "CCC1(c2ccccc2)C(=O)NC(=O)NC1=O", "note": "[PHENOBARBITAL]", "values": [{"measurement": "logD", "setting": "pH 7.4", "result": 0.05}]}
{"smiles": "CN1C(=O)CC(c2ccccc2)C1=O", "note": "(configuration not stated) [PHENSUXIMIDE]", "values": [{"measurement": "logD", "setting": "pH 7.4, LogD7.4", "result": 0.68}]}
{"smiles": "CN(C)CCOc1ccccc1Cc1ccccc1", "note": "[PHENYLTOLOXAMINE]", "values": [{"measurement": "logD", "setting": "pH 7.4, LogD7.4", "result": 2.53}]}
{"smiles": "COc1ccc(C(=O)NCc2cccnc2)cc1C(=O)NCc1cccnc1", "note": "[PICOTAMIDE]", "values": [{"measurement": "logD", "setting": "pH 7.4, LogD7.4", "result": 1.23}]}
{"smiles": "NS(=O)(=O)c1cc(C(=O)O)cc(N2CCCC2)c1Oc1ccccc1", "note": "[PIRETANIDE]", "values": [{"measurement": "logD", "setting": "pH 7.4, LogD7.4", "result": -0.94}]}
{"smiles": "O=C(N[C@H]1CN2CCC1CC2)c1ccc(Cl)cc1", "note": "[PNU-282987]", "values": [{"measurement": "logD", "setting": "pH 7.4", "result": 0.6}]}
{"smiles": "CCCN[C@H]1CCc2nc(N)sc2C1", "note": "[PRAMIPEXOLE]", "values": [{"measurement": "logD", "setting": "pH 7.4, LogD7.4", "result": 3.15}]}
{"smiles": "O=C(C1CCCCC1)N1CC(=O)N2CCc3ccccc3C2C1", "note": "(configuration not stated) [PRAZIQUANTEL]", "values": [{"measurement": "logD", "setting": "pH 7.4, LogD7.4", "result": 2.43}]}
{"smiles": "CCCN(CCC)S(=O)(=O)c1ccc(C(=O)O)cc1", "note": "[PROBENECID]", "values": [{"measurement": "logD", "setting": "pH 7.4, LogD7.4", "result": 0.03}]}
{"smiles": "CCN(CC)CCOC(=O)c1ccc(N)cc1", "note": "[PROCAINE]", "values": [{"measurement": "logD", "setting": "pH 7.4, LogD7.4", "result": 0}]}
{"smiles": "CC(C)[N+](C)(CCOC(=O)C1c2ccccc2Oc2ccccc21)C(C)C", "note": "[PROPANTHELINE]", "values": [{"measurement": "logD", "setting": "pH 7.4, LogD7.4", "result": 0.2}]}
{"smiles": "O=c1c(O)cccc2cc(O)c(O)c(O)c12", "note": "[PURPUROGALLIN]", "values": [{"measurement": "logD", "setting": "pH 7.4, LogD7.4", "result": 2.03}]}
{"smiles": "Cc1ncc(CO)c(CO)c1O", "note": "[PYRIDOXINE]", "values": [{"measurement": "logD", "setting": "pH 7.4, LogD7.4", "result": -0.58}]}
{"smiles": "c1ccc2ncccc2c1", "note": "[QUINOLINE]", "values": [{"measurement": "logD", "setting": "pH 7.4", "result": 2.09}]}
{"smiles": "O=C(Nc1nnn[nH]1)c1cc(Oc2ccccc2)c2ccccn2c1=O", "note": "[QUINOTOLAST]", "values": [{"measurement": "logD", "setting": "pH 7.4, LogD7.4", "result": 0.67}]}
{"smiles": "COCCCOc1ccnc(C[S+]([O-])c2nc3ccccc3[nH]2)c1C", "note": "(configuration not stated) [RABEPRAZOLE]", "values": [{"measurement": "logD", "setting": "pH 7.4", "result": -0.69}]}
{"smiles": "C[C@@H]1NC(C)(C)CO[C@@]1(O)c1cccc(Cl)c1", "note": "[RADAFAXINE]", "values": [{"measurement": "logD", "setting": "pH 7.4", "result": 1.69}]}
{"smiles": "CCC(=O)NCC[C@@H]1CCc2ccc3c(c21)CCO3", "note": "[RAMELTEON]", "values": [{"measurement": "logD", "setting": "pH 7.4, LogD7.4", "result": 2.57}]}
{"smiles": "NC(Cc1cc(I)c(Oc2ccc(O)c(I)c2)c(I)c1)C(=O)O", "note": "(configuration not stated) [RATHYRONINE]", "values": [{"measurement": "logD", "setting": "pH 7.4, LogD7.4", "result": 0.97}]}
{"smiles": "Cc1ccc(COC(=O)N2CC[C@H](CNc3ncccn3)[C@H](F)C2)cc1", "note": "[RISLENEMDAZ]", "values": [{"measurement": "logD", "setting": "pH 7.4, LogD7.4", "result": 3.21}]}
{"smiles": "CC(C)c1nc(CN(C)C(=O)N[C@H](C(=O)N[C@@H](Cc2ccccc2)C[C@H](O)[C@H](Cc2ccccc2)NC(=O)OCc2cncs2)C(C)C)cs1", "note": "[RITONAVIR]", "values": [{"measurement": "logD", "setting": "pH 7.4, LogD7.4", "result": 4.3}]}
{"smiles": "C=C(C)[C@H]1Cc2c(ccc3c2O[C@@H]2COc4cc(OC)c(OC)cc4[C@@H]2C3=O)O1", "note": "[ROTENONE]", "values": [{"measurement": "logD", "setting": "pH 7.4", "result": 3.57}]}
{"smiles": "CC[C@H]1OC(=O)[C@H](C)[C@@H](O[C@H]2C[C@@](C)(OC)[C@@H](O)[C@H](C)O2)[C@H](C)[C@@H](O[C@@H]2O[C@H](C)C[C@H](N(C)C)[C@H]2O)[C@](C)(O)C[C@@H](C)/C(=N\\OCOCCOC)[C@H](C)[C@@H](O)[C@]1(C)O", "note": "[ROXITHROMYCIN]", "values": [{"measurement": "logD", "setting": "pH 7.4, LogD7.4", "result": 1.8}]}
{"smiles": "NC(=O)c1ccccc1O", "note": "[SALICYLAMIDE]", "values": [{"measurement": "logD", "setting": "pH 7.4, LogD7.4", "result": 1.09}]}
{"smiles": "NC(=O)c1cn([C@@H]2O[C@H](CO)[C@@H](O)[C@H]2O)c2ncnc(N)c12", "note": "[SANGIVAMYCIN]", "values": [{"measurement": "logD", "setting": "pH 7.4", "result": -0.87}]}
{"smiles": "NC(Cc1ccc(N(CCCl)CCCl)cc1)C(=O)O", "note": "(configuration not stated) [SARCOLYSIN]", "values": [{"measurement": "logD", "setting": "pH 7.4", "result": 0.39}]}
{"smiles": "CC(C)CC(N(C)C)C1(c2ccc(Cl)cc2)CCC1", "note": "(configuration not stated) [SIBUTRAMINE]", "values": [{"measurement": "logD", "setting": "pH 7.4", "result": 3.6}]}
{"smiles": "O=C(O)c1ccc2c(c1)nc(Nc1cccc(Cl)c1)c1ccncc12", "note": "[SILMITASERTIB]", "values": [{"measurement": "logD", "setting": "pH 7.4, LogD7.4", "result": 1.29}]}
{"smiles": "C[C@@H]1CN(c2c(F)c(N)c3c(=O)c(C(=O)O)cn(C4CC4)c3c2F)C[C@H](C)N1", "note": "[SPARFLOXACIN]", "values": [{"measurement": "logD", "setting": "pH 7.4, LogD7.4", "result": -0.15}]}
{"smiles": "O=C(Oc1ccc(Br)cc1)N1CCN2CCC1CC2", "note": "[SSR180711]", "values": [{"measurement": "logD", "setting": "pH 7.4", "result": 1.58}]}
{"smiles": "CC(=O)O[C@H]1CC[C@]2(C=O)[C@H]3CC[C@]4(C)[C@@H](C5=CC(=O)OC5)CC[C@]4(O)[C@@H]3CC[C@]2(O)C1", "note": "[STROPHANTHIDIN ACETATE]", "values": [{"measurement": "logD", "setting": "pH 7.4", "result": 0.64}]}
{"smiles": "COc1ncnc(NS(=O)(=O)c2ccc(N)cc2)c1OC", "note": "[SULFADOXINE]", "values": [{"measurement": "logD", "setting": "pH 7.4, LogD7.4", "result": -0.73}]}
{"smiles": "Cc1ccnc(NS(=O)(=O)c2ccc(N)cc2)n1", "note": "[SULFAMERAZINE]", "values": [{"measurement": "logD", "setting": "pH 7.4, LogD7.4", "result": -0.51}]}
{"smiles": "COc1cc2c(N3CCN(C(=O)Nc4ccc(OC(C)C)cc4)CC3)ncnc2cc1OCCCN1CCCCC1", "note": "[TANDUTINIB]", "values": [{"measurement": "logD", "setting": "pH 7.4, LogD7.4", "result": 2.6}]}
{"smiles": "CC(C)NCC(O)COc1nccs1", "note": "(configuration not stated) [TAZOLOL]", "values": [{"measurement": "logD", "setting": "pH 7.4, LogD7.4", "result": -0.97}]}
{"smiles": "Cn1nnc2c(C(N)=O)ncn2c1=O", "note": "[TEMOZOLOMIDE]", "values": [{"measurement": "logD", "setting": "pH 7.4, LogD7.4", "result": -1.08}]}
